{"source": "paper PMC12281424", "about": "“A Rac-specific competitive inhibitor of guanine nucleotide binding reduces metastasis in triple-negative breast cancer” (Cell Reports Medicine, 2025)", "key": {"Abl(T315I)(h)": {"biological_target": "Abl(T315I)(h) (Homo sapiens, UniProt P00519, T315I)", "test": "Kinase Profiler", "assay_type": "biochemical", "experimental": "(§1) The kinase profiler was performed by the company Eurofins (Discovery, Panlab and Cerep)."}, "CDC42": {"biological_target": "CDC42 (Homo sapiens, UniProt P60953)", "sequence (P60953 whole entry)": "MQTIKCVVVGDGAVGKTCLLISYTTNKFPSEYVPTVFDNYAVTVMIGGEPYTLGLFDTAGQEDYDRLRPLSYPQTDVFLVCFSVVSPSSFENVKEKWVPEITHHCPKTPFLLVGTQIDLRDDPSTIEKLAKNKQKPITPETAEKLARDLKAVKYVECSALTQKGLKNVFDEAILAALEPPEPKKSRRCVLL", "test": "Surface plasmon resonance", "assay_type": "binding", "set-up": "purchased Cytoskeleton CD01", "details": "A41 0 to 25 μM", "procedure": "SPR immobilization was performed at 25°C. RAC1, RHOA and CDC42 purified proteins (respectively […] and CD01, Cytoskeleton) were diluted to 5 μg/mL in Na^+ acetate buffer (pH 5.0) and injected into sensor chip CM5 (GE Healthcare) in a Biacore T200 (GE Healthcare) that was activated with NHS/EDC buffer. Approximately 5,000 response units of the purified protein were immobilized on the biosensor chip. Biosensor chips were blocked by an injection of 1 mM ethanolamine (pH 8.5). SPR analysis was performed at 25°C in HBSEP running buffer (5% DMSO) with or without EDTA (20 mM). A41 compound was injected over the RAC1, RHOA or CDC42 functionalized surface in concentration range from 0 to 25μM. Association and dissociation phases were monitored during 60s and 300s, respectively."}, "MLCK(h)": {"biological_target": "MLCK(h) (Homo sapiens, UniProt Q15746)", "test": "Kinase Profiler", "assay_type": "biochemical", "experimental": "(§2) Blood cell counts, kinase profiler, safety screen, bacterial cytotoxicity, Ames, micronucleus assays were performed by the company Eurofins (France). The kinase profiler was performed by the company Eurofins (Discovery, Panlab and Cerep)."}, "PKCθ(h)": {"biological_target": "PKCθ(h) (Homo sapiens, UniProt Q04759)", "sequence (Q04759 whole entry)": "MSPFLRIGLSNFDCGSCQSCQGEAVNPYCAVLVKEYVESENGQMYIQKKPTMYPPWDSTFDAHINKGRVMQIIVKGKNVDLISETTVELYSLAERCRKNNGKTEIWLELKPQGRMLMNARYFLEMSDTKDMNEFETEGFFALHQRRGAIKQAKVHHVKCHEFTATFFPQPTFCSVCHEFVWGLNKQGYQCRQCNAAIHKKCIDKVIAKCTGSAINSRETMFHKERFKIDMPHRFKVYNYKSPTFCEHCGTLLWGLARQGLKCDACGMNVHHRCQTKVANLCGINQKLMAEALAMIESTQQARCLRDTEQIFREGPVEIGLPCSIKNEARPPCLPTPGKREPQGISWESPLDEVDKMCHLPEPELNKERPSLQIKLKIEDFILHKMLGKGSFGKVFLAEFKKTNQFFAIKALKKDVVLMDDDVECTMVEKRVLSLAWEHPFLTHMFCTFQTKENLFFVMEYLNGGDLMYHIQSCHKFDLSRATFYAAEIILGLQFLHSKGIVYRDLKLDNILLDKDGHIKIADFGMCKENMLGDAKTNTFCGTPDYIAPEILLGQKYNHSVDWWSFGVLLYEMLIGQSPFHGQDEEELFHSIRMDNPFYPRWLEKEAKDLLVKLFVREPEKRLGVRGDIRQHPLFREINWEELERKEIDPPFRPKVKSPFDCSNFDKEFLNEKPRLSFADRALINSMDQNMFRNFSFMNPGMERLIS", "test": "Kinase Profiler", "assay_type": "biochemical", "experimental": "as §1"}, "Dopamine D2L": {"biological_target": "Dopamine D2L (Homo sapiens, UniProt P14416)", "test": "Safety screen", "assay_type": "binding", "experimental": "(§3) Blood cell counts, kinase profiler, safety screen, bacterial cytotoxicity, Ames, micronucleus assays were performed by the company Eurofins (France)."}, "TAO2(h)": {"biological_target": "TAO2(h) (Homo sapiens, UniProt Q9UL54)", "test": "Kinase Profiler", "assay_type": "biochemical", "experimental": "as §2"}, "CLIK1(h)": {"biological_target": "CLIK1(h) (Homo sapiens, UniProt Q8TDR2)", "test": "Kinase Profiler", "assay_type": "biochemical", "experimental": "as §1"}, "Met(D1246H)(h)": {"biological_target": "Met(D1246H)(h) (Homo sapiens, UniProt P08581, D1228H)", "test": "Kinase Profiler", "assay_type": "biochemical", "experimental": "as §1"}, "MAP4K3(h)": {"biological_target": "MAP4K3(h) (Homo sapiens, UniProt Q8IVH8)", "test": "Kinase Profiler", "assay_type": "biochemical", "experimental": "as §1"}, "PDGFRα(h)": {"biological_target": "PDGFRα(h) (Homo sapiens, UniProt P16234)", "test": "Kinase Profiler", "assay_type": "biochemical", "experimental": "as §1"}, "Aurora-A(h)": {"biological_target": "Aurora-A(h) (Homo sapiens, UniProt O14965)", "test": "Kinase Profiler", "assay_type": "biochemical", "experimental": "as §2"}, "CHK2(R145W)(h)": {"biological_target": "CHK2(R145W)(h) (Homo sapiens, UniProt O96017, R145W)", "test": "Kinase Profiler", "assay_type": "biochemical", "experimental": "as §1"}, "Rsk3(h)": {"biological_target": "Rsk3(h) (Homo sapiens, UniProt Q15349)", "test": "Kinase Profiler", "assay_type": "biochemical", "experimental": "as §1"}, "PEK(h)": {"biological_target": "PEK(h) (Homo sapiens, UniProt Q9NZJ5)", "test": "Kinase Profiler", "assay_type": "biochemical", "experimental": "as §1"}, "JNK2α2(h)": {"biological_target": "JNK2α2(h) (Homo sapiens, UniProt P45984)", "sequence (P45984 whole entry)": "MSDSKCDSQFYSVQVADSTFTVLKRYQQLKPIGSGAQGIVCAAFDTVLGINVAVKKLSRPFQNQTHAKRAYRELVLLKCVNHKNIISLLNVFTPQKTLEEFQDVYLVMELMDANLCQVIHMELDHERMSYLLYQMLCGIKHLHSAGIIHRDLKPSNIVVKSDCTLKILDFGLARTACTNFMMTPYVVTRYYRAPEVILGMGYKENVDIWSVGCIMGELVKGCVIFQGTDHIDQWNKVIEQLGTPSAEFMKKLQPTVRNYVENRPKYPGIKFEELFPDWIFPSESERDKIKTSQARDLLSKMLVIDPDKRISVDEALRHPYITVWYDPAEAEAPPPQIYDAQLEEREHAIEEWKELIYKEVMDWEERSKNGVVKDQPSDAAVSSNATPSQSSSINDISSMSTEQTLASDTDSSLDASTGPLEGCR", "test": "Kinase Profiler", "assay_type": "biochemical", "experimental": "as §1"}, "TA1537": {"system": "TA1537", "test": "Bacterial cytotoxicity", "assay_type": "cell-based", "source_text": "Data S2. Bacterial cytotoxicity of A41.\nTest Concentration %Effect Cytotoxicity (% of control) […]\nBacterial cytotoxicity (TA1537 - S9)"}, "NEK9(h)": {"biological_target": "NEK9(h) (Homo sapiens, UniProt Q8TD19)", "test": "Kinase Profiler", "assay_type": "biochemical", "experimental": "as §1"}, "MRCKβ(h)": {"biological_target": "MRCKβ(h) (Homo sapiens, UniProt Q9Y5S2)", "sequence (Q9Y5S2 whole entry)": "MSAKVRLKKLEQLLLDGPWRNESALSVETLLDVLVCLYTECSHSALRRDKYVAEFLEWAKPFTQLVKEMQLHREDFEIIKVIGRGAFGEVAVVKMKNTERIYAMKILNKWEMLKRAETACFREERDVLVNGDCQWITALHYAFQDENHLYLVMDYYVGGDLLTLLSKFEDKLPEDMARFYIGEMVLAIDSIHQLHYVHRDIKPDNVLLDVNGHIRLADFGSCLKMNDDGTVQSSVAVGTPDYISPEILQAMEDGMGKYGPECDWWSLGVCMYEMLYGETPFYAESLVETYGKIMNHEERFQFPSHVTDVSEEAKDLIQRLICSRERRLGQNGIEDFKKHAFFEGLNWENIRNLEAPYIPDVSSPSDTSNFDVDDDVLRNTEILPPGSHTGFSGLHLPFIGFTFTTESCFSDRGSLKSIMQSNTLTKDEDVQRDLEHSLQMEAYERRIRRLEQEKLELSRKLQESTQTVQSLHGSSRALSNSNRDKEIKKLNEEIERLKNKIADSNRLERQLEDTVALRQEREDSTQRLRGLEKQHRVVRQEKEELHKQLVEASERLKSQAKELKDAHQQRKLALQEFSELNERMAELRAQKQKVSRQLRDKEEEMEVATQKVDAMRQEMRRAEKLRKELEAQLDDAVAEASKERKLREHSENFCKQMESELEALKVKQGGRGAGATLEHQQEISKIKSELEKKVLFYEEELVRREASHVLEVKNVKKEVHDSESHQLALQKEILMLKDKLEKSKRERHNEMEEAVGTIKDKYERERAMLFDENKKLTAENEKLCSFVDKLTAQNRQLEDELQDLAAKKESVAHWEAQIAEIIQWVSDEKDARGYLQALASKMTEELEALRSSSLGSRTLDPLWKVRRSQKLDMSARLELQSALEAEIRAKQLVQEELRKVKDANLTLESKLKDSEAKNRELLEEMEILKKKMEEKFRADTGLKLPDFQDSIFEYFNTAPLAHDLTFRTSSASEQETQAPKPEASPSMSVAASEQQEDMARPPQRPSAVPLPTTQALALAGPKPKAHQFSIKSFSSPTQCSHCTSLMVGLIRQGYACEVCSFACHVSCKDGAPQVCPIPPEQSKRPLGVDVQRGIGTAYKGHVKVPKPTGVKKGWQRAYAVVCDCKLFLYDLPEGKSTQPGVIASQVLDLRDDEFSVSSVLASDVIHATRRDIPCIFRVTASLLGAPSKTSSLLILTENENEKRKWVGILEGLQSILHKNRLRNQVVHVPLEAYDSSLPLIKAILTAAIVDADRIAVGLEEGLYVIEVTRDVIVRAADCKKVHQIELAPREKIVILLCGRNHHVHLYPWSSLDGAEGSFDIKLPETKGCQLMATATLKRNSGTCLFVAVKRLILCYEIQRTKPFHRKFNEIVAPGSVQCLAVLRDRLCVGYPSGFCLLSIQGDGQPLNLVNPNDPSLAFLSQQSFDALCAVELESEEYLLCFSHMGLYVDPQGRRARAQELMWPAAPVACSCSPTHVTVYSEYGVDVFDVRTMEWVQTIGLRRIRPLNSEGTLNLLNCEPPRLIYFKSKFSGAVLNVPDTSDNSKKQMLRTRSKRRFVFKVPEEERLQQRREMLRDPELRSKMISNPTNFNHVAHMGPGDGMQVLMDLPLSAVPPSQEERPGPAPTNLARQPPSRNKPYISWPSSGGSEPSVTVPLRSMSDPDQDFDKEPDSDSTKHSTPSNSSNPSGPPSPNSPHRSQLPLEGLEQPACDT", "test": "Kinase Profiler", "assay_type": "biochemical", "experimental": "as §1"}, "NDR2(h)": {"biological_target": "NDR2(h) (Homo sapiens, UniProt Q9Y2H1)", "test": "Kinase Profiler", "assay_type": "biochemical", "experimental": "as §1"}, "Abl(Y253F)(h)": {"biological_target": "Abl(Y253F)(h) (Homo sapiens, UniProt P00519, Y253F)", "test": "Kinase Profiler", "assay_type": "biochemical", "experimental": "as §1"}, "FGFR1(V561M)(h)": {"biological_target": "FGFR1(V561M)(h) (Homo sapiens, UniProt P11362, V561M)", "test": "Kinase Profiler", "assay_type": "biochemical", "experimental": "as §1"}, "Abl(m)": {"biological_target": "Abl(m) (Mus musculus, UniProt P00520)", "sequence (P00520 27-1123 limits assumed)": "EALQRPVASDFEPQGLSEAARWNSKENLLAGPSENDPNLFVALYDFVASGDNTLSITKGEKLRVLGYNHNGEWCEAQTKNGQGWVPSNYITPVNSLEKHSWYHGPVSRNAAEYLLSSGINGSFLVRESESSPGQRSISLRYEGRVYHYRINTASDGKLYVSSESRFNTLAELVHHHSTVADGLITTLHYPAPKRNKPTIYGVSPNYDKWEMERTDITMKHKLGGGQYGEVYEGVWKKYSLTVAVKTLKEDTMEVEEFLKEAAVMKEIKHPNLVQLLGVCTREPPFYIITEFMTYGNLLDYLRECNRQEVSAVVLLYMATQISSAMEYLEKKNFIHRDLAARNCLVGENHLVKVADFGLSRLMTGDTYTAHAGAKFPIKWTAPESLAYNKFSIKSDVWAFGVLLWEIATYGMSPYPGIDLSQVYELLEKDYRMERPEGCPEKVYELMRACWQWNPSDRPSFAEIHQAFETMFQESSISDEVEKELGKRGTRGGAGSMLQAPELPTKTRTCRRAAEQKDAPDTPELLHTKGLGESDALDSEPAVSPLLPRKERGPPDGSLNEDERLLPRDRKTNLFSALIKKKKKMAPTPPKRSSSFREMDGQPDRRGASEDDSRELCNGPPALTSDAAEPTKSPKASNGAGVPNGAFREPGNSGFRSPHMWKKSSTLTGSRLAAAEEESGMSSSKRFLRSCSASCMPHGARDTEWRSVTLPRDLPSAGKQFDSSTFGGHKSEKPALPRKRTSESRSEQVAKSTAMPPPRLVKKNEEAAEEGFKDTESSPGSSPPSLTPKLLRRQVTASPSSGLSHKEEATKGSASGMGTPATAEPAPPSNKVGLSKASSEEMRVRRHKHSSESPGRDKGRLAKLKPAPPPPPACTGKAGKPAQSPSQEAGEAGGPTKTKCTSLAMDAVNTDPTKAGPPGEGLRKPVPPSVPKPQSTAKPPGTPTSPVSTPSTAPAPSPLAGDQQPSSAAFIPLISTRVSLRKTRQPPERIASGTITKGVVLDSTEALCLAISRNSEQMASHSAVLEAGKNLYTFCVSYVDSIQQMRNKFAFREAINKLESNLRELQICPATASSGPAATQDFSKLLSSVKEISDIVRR", "test": "Kinase Profiler", "assay_type": "biochemical", "experimental": "as §1"}, "Melanocortin MC4": {"biological_target": "Melanocortin MC4 (Homo sapiens, UniProt P32245)", "test": "Safety screen", "assay_type": "binding", "experimental": "as §3"}, "PKCμ(h)": {"biological_target": "PKCμ(h) (Homo sapiens, UniProt Q15139)", "test": "Kinase Profiler", "assay_type": "biochemical", "experimental": "as §1"}, "[1]": {"biological_target": "Cholinesterase, Acetyl, ACES (Homo sapiens, UniProt P22303)", "experimental": "as §2"}, "Opiate µ(OP3, MOP)": {"biological_target": "Opiate µ(OP3, MOP) (Homo sapiens, UniProt P35372)", "test": "Safety screen", "assay_type": "binding", "experimental": "as §2"}, "ULK1(h)": {"biological_target": "ULK1(h) (Homo sapiens, UniProt O75385)", "test": "Kinase Profiler", "assay_type": "biochemical", "experimental": "as §2"}, "PI3KC2a(h)": {"biological_target": "PI3KC2a(h) (Homo sapiens, UniProt O00443)", "test": "Kinase Profiler", "assay_type": "biochemical", "experimental": "as §1"}, "DYRK2(h)": {"biological_target": "DYRK2(h) (Homo sapiens, UniProt Q92630)", "test": "Kinase Profiler", "assay_type": "biochemical", "experimental": "as §1"}, "SAPK3(h)": {"biological_target": "SAPK3(h) (Homo sapiens, UniProt P53778)", "sequence (P53778 whole entry)": "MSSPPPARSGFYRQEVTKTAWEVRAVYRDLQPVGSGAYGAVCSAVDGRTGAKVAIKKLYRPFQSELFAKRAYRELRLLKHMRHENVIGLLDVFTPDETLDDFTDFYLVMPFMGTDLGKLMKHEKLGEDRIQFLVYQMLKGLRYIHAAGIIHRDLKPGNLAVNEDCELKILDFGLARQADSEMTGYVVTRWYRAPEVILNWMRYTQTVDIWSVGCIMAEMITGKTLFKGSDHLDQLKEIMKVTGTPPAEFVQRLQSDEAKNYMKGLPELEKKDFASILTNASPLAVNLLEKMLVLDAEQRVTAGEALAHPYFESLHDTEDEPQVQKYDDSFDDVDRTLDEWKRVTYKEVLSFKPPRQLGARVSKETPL", "test": "Kinase Profiler", "assay_type": "biochemical", "experimental": "as §1"}, "MAPKAP-K2(h)": {"biological_target": "MAPKAP-K2(h) (Homo sapiens, UniProt P49137)", "test": "Kinase Profiler", "assay_type": "biochemical", "experimental": "as §1"}, "STK32B(h)": {"biological_target": "STK32B(h) (Homo sapiens, UniProt Q9NY57)", "sequence (Q9NY57 whole entry)": "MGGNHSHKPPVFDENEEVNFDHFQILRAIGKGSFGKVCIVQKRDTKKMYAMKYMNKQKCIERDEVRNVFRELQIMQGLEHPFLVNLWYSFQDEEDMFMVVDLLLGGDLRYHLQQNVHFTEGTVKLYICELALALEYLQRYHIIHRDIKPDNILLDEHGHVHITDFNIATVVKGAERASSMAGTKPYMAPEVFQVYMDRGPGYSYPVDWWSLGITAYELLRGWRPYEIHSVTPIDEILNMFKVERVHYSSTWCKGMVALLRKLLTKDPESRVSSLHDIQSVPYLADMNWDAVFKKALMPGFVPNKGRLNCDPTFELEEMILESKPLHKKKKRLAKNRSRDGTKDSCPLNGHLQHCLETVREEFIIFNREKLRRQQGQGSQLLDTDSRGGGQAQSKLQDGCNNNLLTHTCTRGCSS", "test": "Kinase Profiler", "assay_type": "biochemical", "experimental": "as §1"}}, "note": "Where “and” joins values, the source holds several entries; their conditions need not be identical. Identical values can stand only once."}
{"smiles": "COc1ccc(OC)c(NS(=O)(=O)c2ccc(NC(=O)CCSc3ccc(C)cc3)cc2)c1", "note": "[Compound A41]", "values": [{"measurement": "Activity(%)", "setting": "Abl(T315I)(h)", "result": 117, "unit": "%"}, {"measurement": "binding", "setting": "CDC42", "result": "No binding was measured"}, {"measurement": "Activity(%)", "setting": "MLCK(h)", "result": 103, "unit": "%"}, {"measurement": "Activity(%)", "setting": "PKCθ(h)", "result": 114, "unit": "%"}, {"measurement": "% inh.", "setting": "Dopamine D2L", "result": 9, "unit": "%"}, {"measurement": "Activity(%)", "setting": "TAO2(h)", "result": 108, "unit": "%"}, {"measurement": "Activity(%)", "setting": "CLIK1(h)", "result": 112, "unit": "%"}, {"measurement": "Activity(%)", "setting": "Met(D1246H)(h)", "result": 115, "unit": "%"}, {"measurement": "Activity(%)", "setting": "MAP4K3(h)", "result": 98, "unit": "%"}, {"measurement": "Activity(%)", "setting": "PDGFRα(h)", "result": 92, "unit": "%"}, {"measurement": "Activity(%)", "setting": "Aurora-A(h)", "result": 124, "unit": "%"}, {"measurement": "Activity(%)", "setting": "CHK2(R145W)(h)", "result": 92, "unit": "%"}, {"measurement": "Activity(%)", "setting": "Rsk3(h)", "result": 93, "unit": "%"}, {"measurement": "Activity(%)", "setting": "PEK(h)", "result": 102, "unit": "%"}, {"measurement": "Activity(%)", "setting": "JNK2α2(h)", "result": 101, "unit": "%"}, {"measurement": "%Effect, single replicates (1st, 2nd, 3rd)", "setting": "TA1537; - S9, 1.0E-04 M", "result": "222.5% and 214.4% and 229.2%"}, {"measurement": "Cytotoxicity (% of control), Mean %Effect", "setting": "TA1537; - S9, 1.0E-04 M", "result": 222.0, "unit": "%"}, {"measurement": "%Effect, single replicates (1st, 2nd, 3rd)", "setting": "TA1537; - S9, 1.0E-05 M", "result": "109.9% and 108.6% and 111.2%"}, {"measurement": "Cytotoxicity (% of control), Mean %Effect", "setting": "TA1537; - S9, 1.0E-05 M", "result": 109.9, "unit": "%"}, {"measurement": "%Effect, single replicates (1st, 2nd, 3rd)", "setting": "TA1537; - S9, 1.2E-06 M", "result": "109.9% and 108.6% and 101.9%"}, {"measurement": "Cytotoxicity (% of control), Mean %Effect", "setting": "TA1537; - S9, 1.2E-06 M", "result": 106.8, "unit": "%"}, {"measurement": "%Effect, single replicates (1st, 2nd, 3rd)", "setting": "TA1537; - S9, 2.5E-05 M", "result": "128.7% and 115.3% and 112.6%"}, {"measurement": "Cytotoxicity (% of control), Mean %Effect", "setting": "TA1537; - S9, 2.5E-05 M", "result": 118.8, "unit": "%"}, {"measurement": "%Effect, single replicates (1st, 2nd, 3rd)", "setting": "TA1537; - S9, 2.5E-06 M", "result": "111.2% and 104.5% and 99.2%"}, {"measurement": "Cytotoxicity (% of control), Mean %Effect", "setting": "TA1537; - S9, 2.5E-06 M", "result": 105.0, "unit": "%"}, {"measurement": "%Effect, single replicates (1st, 2nd, 3rd)", "setting": "TA1537; - S9, 5.0E-05 M", "result": "162.2% and 150.1% and 148.8%"}, {"measurement": "Cytotoxicity (% of control), Mean %Effect", "setting": "TA1537; - S9, 5.0E-05 M", "result": 153.7, "unit": "%"}, {"measurement": "%Effect, single replicates (1st, 2nd, 3rd)", "setting": "TA1537; - S9, 5.0E-06 M", "result": "116.6% and 111.2% and 100.5%"}, {"measurement": "Cytotoxicity (% of control), Mean %Effect", "setting": "TA1537; - S9, 5.0E-06 M", "result": 109.4, "unit": "%"}, {"measurement": "%Effect, single replicates (1st, 2nd, 3rd)", "setting": "TA1537; - S9, 6.0E-07 M", "result": "107.2% (2×) and 115.3%"}, {"measurement": "Cytotoxicity (% of control), Mean %Effect", "setting": "TA1537; - S9, 6.0E-07 M", "result": 109.9, "unit": "%"}, {"measurement": "Activity(%)", "setting": "NEK9(h)", "result": 107, "unit": "%"}, {"measurement": "Activity(%)", "setting": "MRCKβ(h)", "result": 102, "unit": "%"}, {"measurement": "Activity(%)", "setting": "NDR2(h)", "result": 112, "unit": "%"}, {"measurement": "Activity(%)", "setting": "Abl(Y253F)(h)", "result": 102, "unit": "%"}, {"measurement": "Activity(%)", "setting": "FGFR1(V561M)(h)", "result": 129, "unit": "%"}, {"measurement": "Activity(%)", "setting": "Abl(m)", "result": 125, "unit": "%"}, {"measurement": "% inh.", "setting": "Melanocortin MC4", "result": 8, "unit": "%"}, {"measurement": "Activity(%)", "setting": "PKCμ(h)", "result": 104, "unit": "%"}, {"measurement": "% inh.", "setting": "[1]", "result": 64, "unit": "%"}, {"measurement": "% inh.", "setting": "Opiate µ(OP3, MOP)", "result": 14, "unit": "%"}, {"measurement": "Activity(%)", "setting": "ULK1(h)", "result": 106, "unit": "%"}, {"measurement": "Activity(%)", "setting": "PI3KC2a(h)", "result": 95, "unit": "%"}, {"measurement": "Activity(%)", "setting": "DYRK2(h)", "result": 104, "unit": "%"}, {"measurement": "Activity(%)", "setting": "SAPK3(h)", "result": 105, "unit": "%"}, {"measurement": "Activity(%)", "setting": "MAPKAP-K2(h)", "result": 111, "unit": "%"}, {"measurement": "Activity(%)", "setting": "STK32B(h)", "result": 105, "unit": "%"}]}
